Source: US9926319B2, “Pyridyl piperidines” (MERCK PATENT GMBH, priority 2014, dated 2018)

What was measured:
Wnt pathway = assay: Cellular assay for Wnt pathway activity (luciferase reporter cell based assay); conditions: 24 h, HEK293 luciferase reporter cell line (ER-DSH, TCF dependent promoter), induced with estrogen (1 μM), read-out: 7df3 IC50
[1] = CLint (intrinsic clearance) assay, microsomal incubation; type: in vitro ADME, Human; conditions: NADPH, 37° C., up to 30 min; for microsomal CLint at 0.8 μM: human, liver microsomes, pH 7.4, human liver microsomes 0.5 mg/mL protein; for Human Clint: human liver microsomes 0.5 mg/mL protein
Method: 2. CLint (Intrinsic Clearance) Assay
A Tecan Genesis workstation (RWS ASY 150/8) was used to perform the microsomal incubations. Analysis was carried out using a Waters ACQUITY UPLC system coupled to an ABSciex API3000 mass spectrometer. Data analysis was performed using Assay Explorer (Symyx).
0.1 M potassium phosphate buffer pH 7.4 containing 1 mM MgCl2
15 mM NADPH in phosphate buffer
5.0 mg protein/mL liver microsomes in phosphate buffer
Each experiment consists of 12 test and 2 reference compounds. The reference compounds are incubated as a cocktail.
Dilution of test compounds was done in 2 steps from a 10 mM DMSO stock solution. First 4 μL stock solution was added to 196 μL of 20% DMSO in potassium phosphate buffer pH 7.4. In a second step 10 μL of the first dilution were added to […] potassium phosphate buffer and 100 μL internal standard solution to a final concentration of 0.8 μM. 100 μL of the final compound dilution were aliquoted into a 96 deep well plate. 12.5 μL liver microsomes were added to each well (0.5 mg/mL final protein concentration) and the samples preincubated for 5 min at 37° C. and 800 rpm agitation.
After the preincubation, 250 μL cold acetonitrile were added to the 0 min samples to prevent a reaction. Following this, 12.5 μL NADPH solution were added to all wells to start the incubation, with the exception of the 0 min and 30 min controls without cofactor, where the NADPH was substituted for phosphate buffer.
The incubations were stopped after 5, 10, 20 and 30 min by adding 250 μL cold acetonitrile to the individual wells.
The quenched samples were then centrifuged at 4000 g for 1 h at 4° C. 100 μL of the supernatant were transferred into 96 well plates for analysis.
The metabolic stability of each compound was determined by measurement of the change in LC-MS/MS peak area over time. Assay Explorer software was used to automatically calculate the slope k of the decline. The intrinsic clearance (CLint) of each compound was then calculated according to the formula: CLint(μL/min/mg protein)=k1000/protein concentration.
CLint is shown for each compound in Table 3 below.

Compound	IC50 (Wnt pathway) [nM]	microsomal CLint at 0.8 μM [1] [µL/min/mg]	Human Clint [1] [µL/min/mg]
O=C1NCCC12CCN(c1c(Cl)cncc1-c1ccc(-c3cnn([C@H]4CCC[C@@H]4O)c3)cc1)CC2 (racemic) [Example 56, 8-(3-Chloro-5-{4-[1-((1S,2S)-2-hydroxy-cyclopentyl)-1H-pyrazol-4-yl]-phenyl}-pyridin-4-yl)-2,8-diaza-spiro[4.5]decan-1-one]	7.6	44	
O=C1NCC2(CCN(c3c(Cl)cncc3-c3ccc(-c4cnn([C@H]5CCC[C@@H]5O)c4)cc3)CC2)O1 (racemic) [Example 57, 8-(3-Chloro-5-{4-[1-((1S,2S)-2-hydroxy-cyclopentyl)-1H-pyrazol-4-yl]-phenyl}-pyridin-4-yl)-1-oxa-3,8-diaza-spiro[4.5]decan-2-one]	18	32	
CC1NC(=O)OC12CCN(c1c(Cl)cncc1-c1ccc3c(c1)CS(=O)(=O)N3C)CC2 (racemic) [Example 96, 8-[3-Chloro-5-(1-methyl-2,2-dioxo-2,3-dihydro-1H-2l6-benzo[c]isothiazol-5-yl)-pyridin-4-yl]-4-methyl-1-oxa-3,8-diaza-spiro[4.5]decan-2-one]	4.2	39	
CC1NC(=O)OC12CCN(c1c(Cl)cncc1-c1ccc(-c3cnn(C)c3)cc1)CC2 (racemic) [Example 97, 8-{3-Chloro-5-[4-(1-methyl-1H-pyrazol-4-yl)-phenyl]-pyridin-4-yl}-4-methyl-1-oxa-3,8-diaza-spiro[4.5]decan-2-one]	42	26	
Cn1ncc2cc(-c3cncc(Cl)c3N3CCC4(CC3)CC(=O)NC4=O)ccc21 [Example 1, 8-[3-Chloro-5-(1-methyl-1H-indazol-5-yl)-pyridin-4-yl]-2,8-diaza-spiro[4.5]decane-1,3-dione]	3.4	11	
Cn1ncc2cc(-c3cncc(Cl)c3N3CCC4(CC3)NC(=O)NC4=O)ccc21 [Example 2, 8-[3-Chloro-5-(1-methyl-1H-indazol-5-yl)-pyridin-4-yl]-1,3,8-triaza-spiro[4.5]decane-2,4-dione]	46	15	
O=C1NCCC12CCN(c1c(Cl)cncc1-c1ccc3oc(=O)[nH]c3c1)CC2 [Example 3, 5-[5-Chloro-4-(1-oxo-2,8-diaza-spiro[4.5]dec-8-yl)-pyridin-3-yl]-3H-benzooxazol-2-one]	4.4	35	
Cn1ncc2cc(-c3cncc(Cl)c3N3CCC4(CC3)CNC(=O)O4)ccc21 [Example 4, 8-[3-Chloro-5-(1-methyl-1H-indazol-5-yl)-pyridin-4-yl]-1-oxa-3,8-diaza-spiro[4.5]decan-2-one]	10	23	
O=C1NCCC12CCN(c1c(Cl)cncc1-c1ccc(-c3cnn(CCO)c3)cc1)CC2 [Example 5, 8-(3-Chloro-5-{4-[1-(2-hydroxy-ethyl)-1H-pyrazol-4-yl]-phenyl}-pyridin-4-yl)-2,8-diaza-spiro[4.5]decan-1-one]			40
Nc1n[nH]c2cc(-c3cncc(Cl)c3N3CCC4(CCNC4=O)CC3)ccc12 [Example 7, 8-[3-(3-Amino-1H-indazol-6-yl)-5-chloro-pyridin-4-yl]-2,8-diaza-spiro[4.5]decan-1-one]			27
Cn1cc(-c2ccc(-c3cncc(Cl)c3N3CCC4(CC3)CNC(=O)O4)cc2)cn1 [Example 9, 8-{3-Chloro-5-[4-(1-methyl-1H-pyrazol-4-yl)-phenyl]-pyridin-4-yl}-1-oxa-3,8-diaza-spiro[4.5]decan-2-one]			40
Cn1cc(-c2ccc(-c3cncc(Cl)c3N3CCC4(CC3)NC(=O)NC4=O)cc2)cn1 [Example 13, 8-{3-Chloro-5-[4-(1-methyl-1H-pyrazol-4-yl)-phenyl]-pyridin-4-yl}-1,3,8-triaza-spiro[4.5]decane-2,4-dione]		< 10	
Cc1nc(-c2ccc(-c3cncc(Cl)c3N3CCC4(CCNC4=O)CC3)cc2)cn1C [Example 18, 8-{3-Chloro-5-[4-(1,2-dimethyl-1H-imidazol-4-yl)-phenyl]-pyridin-4-yl}-2,8-diaza-spiro[4.5]decan-1-one]			13
Cn1nc(N)c2ccc(-c3cncc(Cl)c3N3CCC4(CCNC4=O)CC3)cc21 [Example 24, 8-[3-(3-Amino-1-methyl-1H-indazol-6-yl)-5-chloro-pyridin-4-yl]-2,8-diaza-spiro[4.5]decan-1-one]			78
CNc1n[nH]c2cc(-c3cncc(Cl)c3N3CCC4(CCNC4=O)CC3)ccc12 [Example 34, 8-[3-Chloro-5-(3-methylamino-1H-indazol-6-yl)-pyridin-4-yl]-2,8-diaza-spiro[4.5]decan-1-one]			52
Cn1cc(-c2ccc(-c3cncc(C(F)(F)F)c3N3CCC4(CC3)CNC(=O)O4)cc2)cn1 [Example 35, 8-{3-[4-(1-Methyl-1H-pyrazol-4-yl)-phenyl]-5-trifluoromethyl-pyridin-4-yl}-1-oxa-3,8-diaza-spiro[4.5]decan-2-one]		< 10	
CN1c2ccc(-c3cncc(Cl)c3N3CCC4(CC3)NC(=O)NC4=O)cc2CS1(=O)=O [Example 37, 8-[3-Chloro-5-(1-methyl-2,2-dioxo-2,3-dihydro-1H-2l6-benzo[c]isothiazol-5-yl)-pyridin-4-yl]-1,3,8-triaza-spiro[4.5]decane-2,4-dione]			11
CC1=NNC(=O)C12CCN(c1c(Cl)cncc1-c1ccc3c(c1)CS(=O)(=O)N3C)CC2 [Example 41, 8-[3-Chloro-5-(1-methyl-2,2-dioxo-2,3-dihydro-1H-2l6-benzo[c]isothiazol-5-yl)-pyridin-4-yl]-4-methyl-2,3,8-triaza-spiro[4.5]dec-3-en-1-one]			85
Cn1cc(-c2ccc(-c3cncc(C(F)(F)F)c3N3CCC4(CCNC4=O)CC3)cc2)cn1 [Example 45, 8-{3-[4-(1-Methyl-1H-pyrazol-4-yl)-phenyl]-5-trifluoromethyl-pyridin-4-yl}-2,8-diaza-spiro[4.5]decan-1-one]			81
CC1=NC2(CCN(c3c(Cl)cncc3-c3ccc4c(c3)CS(=O)(=O)N4C)CC2)C(=O)N1 [Example 46, 8-[3-Chloro-5-(1-methyl-2,2-dioxo-2,3-dihydro-1H-2l6-benzo[c]isothiazol-5-yl)-pyridin-4-yl]-2-methyl-1,3,8-triaza-spiro[4.5]dec-1-en-4-one]			16
CC(C)(O)Cn1cc(-c2ccc(-c3cncc(Cl)c3N3CCC4(CCNC4=O)CC3)cc2)cn1 [Example 47, 8-(3-Chloro-5-{4-[1-(2-hydroxy-2-methyl-propyl)-1H-pyrazol-4-yl]-phenyl}-pyridin-4-yl)-2,8-diaza-spiro[4.5]decan-1-one]			23
CN1C(=O)NC(=O)C12CCN(c1c(Cl)cncc1-c1ccc(-c3cnn(C)c3)cc1)CC2 [Example 49, 8-{3-Chloro-5-[4-(1-methyl-1H-pyrazol-4-yl)-phenyl]-pyridin-4-yl}-1-methyl-1,3,8-triaza-spiro[4.5]decane-2,4-dione]			20
CN1c2ccc(-c3cncc(Cl)c3N3CCC4(CC3)C(=O)NN=C4C(F)(F)F)cc2CS1(=O)=O [Example 58, 8-[3-Chloro-5-(1-methyl-2,2-dioxo-2,3-dihydro-1H-2l6-benzo[c]isothiazol-5-yl)-pyridin-4-yl]-4-trifluoromethyl-2,3,8-triaza-spiro[4.5]dec-3-en-1-one]			89
Cn1ccc(-c2ccc(-c3cncc(Cl)c3N3CCC4(CCNC4=O)CC3)cc2)n1 [Example 67, 8-{3-Chloro-5-[4-(1-methyl-1H-pyrazol-3-yl)-phenyl]-pyridin-4-yl}-2,8-diaza-spiro[4.5]decan-1-one]	41		
CN1c2ccc(-c3cncc(F)c3N3CCC4(CC3)CNC(=O)O4)cc2CS1(=O)=O [Example 80, 8-[3-Fluoro-5-(1-methyl-2,2-dioxo-2,3-dihydro-1H-2l6-benzo[c]isothiazol-5-yl)-pyridin-4-yl]-1-oxa-3,8-diaza-spiro[4.5]decan-2-one]			18
Cn1cc(-c2ccc(-c3cncc(Cl)c3N3CCC4(CC3)CC(=O)NC4=O)cc2)cn1 [Example 86, 8-{3-Chloro-5-[4-(1-methyl-1H-pyrazol-4-yl)-phenyl]-pyridin-4-yl}-2,8-diaza-spiro[4.5]decane-1,3-dione]	2.2		
Cn1ncc2cc(-c3cncc(Cl)c3N3CCC4(CCNC4=O)CC3)ccc21 [Example 91, 8-[3-Chloro-5-(1-methyl-1H-indazol-5-yl)-pyridin-4-yl]-2,8-diaza-spiro[4.5]decan-1-one]	8.2		
